Experimental data published in ChEMBL document CHEMBL1201862, “PubChem BioAssay data set” (2004).
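Briefly, cells in 96-well plates were exposed to five compound concentrations for 48 h, and endpoints were estimated by linear interpolation. Here, GI50 denotes the concentration required for 50% inhibition of growth.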 Activity calls are given as the source filed them. Cut-off read from the data, not from the text of the source: active = GI50 up to about 1.1 µM and inactive = higher.

Assays:
Assay in all cases: NCI-60 cell line screen, 48 h
A549 = system: A549
ACHN = system: ACHN
CCRF-CEM = system: CCRF-CEM
EKVX = system: EKVX
HCC 2998 = system: HCC 2998
HOP-92 = system: HOP-92
IGROV-1 = system: IGROV-1
K562 = system: K562
OVCAR-4 = system: OVCAR-4
RPMI-8226 = system: RPMI-8226
RXF 393 = system: RXF 393
SK-OV-3 = system: SK-OV-3
TK-10 = system: TK-10
UACC-257 = system: UACC-257
UO-31 = system: UO-31
SR = system: SR
U-251 = system: U-251

Measured: GI50

CCC(=O)CCC1=Nc2nnc(CCCCc3nnc4n3C(=O)C(CCC(=O)CC)=N4)n2C1=O
inactive: A549 > 100 µM | ACHN > 100 µM | CCRF-CEM > 100 µM | EKVX > 100 µM | HCC 2998 > 100 µM | HOP-92 > 100 µM | IGROV-1 > 100 µM | K562 > 100 µM | OVCAR-4 > 100 µM | RPMI-8226 > 100 µM | RXF 393 > 100 µM | SK-OV-3 > 100 µM | TK-10 > 100 µM | UACC-257 > 100 µM | UO-31 > 100 µM

N#CCCN(CCC#N)c1ccc(/C=C(/NC(=O)c2cc([N+](=O)[O-])ccc2Cl)C(=O)NN)cc1
inactive: A549 > 100 µM | ACHN > 100 µM | CCRF-CEM 47.5 µM | EKVX > 100 µM | HCC 2998 > 100 µM | IGROV-1 > 100 µM | K562 > 100 µM | OVCAR-4 > 100 µM | RPMI-8226 29.6 µM | RXF 393 > 100 µM | SK-OV-3 > 100 µM | SR 3.94 µM | TK-10 > 100 µM | U-251 > 100 µM | UACC-257 > 100 µM | UO-31 > 100 µM

Cc1cccc(NC2=NC(=O)C(CC(=O)Nc3cccc(C)c3C)S2)c1 (centres undefined)
inactive: A549 > 100 µM | ACHN > 100 µM | CCRF-CEM 25.8 µM | EKVX > 100 µM | HCC 2998 > 100 µM | HOP-92 21.2 µM | IGROV-1 > 100 µM | OVCAR-4 > 100 µM | RPMI-8226 85.9 µM | RXF 393 > 100 µM | TK-10 > 100 µM | U-251 > 100 µM | UACC-257 > 100 µM | UO-31 > 100 µM

Nc1ccc2ncc(Nc3ccc(F)cc3)nc2c1
inactive: A549 > 100 µM | ACHN > 100 µM | CCRF-CEM 56.8 µM | EKVX > 100 µM | HCC 2998 > 100 µM | K562 52.5 µM | OVCAR-4 > 100 µM | RPMI-8226 87.3 µM | SR 44 µM | TK-10 > 100 µM | U-251 > 100 µM | UACC-257 > 100 µM | UO-31 99.3 µM

NC(=O)C12CC3CC(CC(F)(C3)C1)C2
inactive: A549 > 100 µM | ACHN > 100 µM | CCRF-CEM > 100 µM | EKVX > 100 µM | HCC 2998 > 100 µM | HOP-92 > 100 µM | IGROV-1 > 100 µM | K562 > 100 µM | RPMI-8226 > 100 µM | RXF 393 > 100 µM | SK-OV-3 > 100 µM | TK-10 > 100 µM | U-251 > 100 µM | UACC-257 > 100 µM | UO-31 > 100 µM

C=CCC1(CN(C)C)CC/C(=C\c2ccc(OC)cc2)C1=O (centres undefined)
inactive: A549 > 100 µM | ACHN > 100 µM | CCRF-CEM 34.8 µM | EKVX 20.3 µM | HCC 2998 38.7 µM | HOP-92 83.6 µM | IGROV-1 > 100 µM | K562 32.9 µM | OVCAR-4 88.7 µM | RPMI-8226 23.9 µM | RXF 393 > 100 µM | TK-10 > 100 µM | U-251 89.5 µM | UACC-257 38 µM | UO-31 89.9 µM

CC#COS(=O)(=O)c1ccc(C)cc1
inactive: A549 44.3 µM | ACHN 58.2 µM | CCRF-CEM 27.9 µM | EKVX 53.5 µM | HCC 2998 > 100 µM | IGROV-1 > 100 µM | K562 36.8 µM | OVCAR-4 58.5 µM | RPMI-8226 23.1 µM | SK-OV-3 84.3 µM | SR 33.7 µM | TK-10 > 100 µM | U-251 > 100 µM | UACC-257 47.5 µM | UO-31 57.1 µM

CC(=O)OCC1OC(n2c(=S)n(-c3ccccc3)c(=O)c3cc(Br)ccc32)C(OC(C)=O)C1OC(C)=O (centres undefined)
inactive: A549 > 100 µM | ACHN > 100 µM | EKVX > 100 µM | HCC 2998 > 100 µM | HOP-92 > 100 µM | IGROV-1 > 100 µM | OVCAR-4 > 100 µM | RPMI-8226 51.3 µM | RXF 393 > 100 µM | SK-OV-3 > 100 µM | U-251 > 100 µM | UACC-257 > 100 µM | UO-31 > 100 µM

Cc1ccc(S(=O)(=O)N2CCC2c2ccccc2)cc1 (centres undefined)
inactive: A549 67.5 µM | ACHN > 100 µM | CCRF-CEM 80.4 µM | EKVX 64 µM | HCC 2998 > 100 µM | HOP-92 10.1 µM | IGROV-1 > 100 µM | K562 41.8 µM | OVCAR-4 46.6 µM | RPMI-8226 66.2 µM | RXF 393 84.5 µM | SK-OV-3 > 100 µM | TK-10 > 100 µM | U-251 > 100 µM | UACC-257 47.3 µM | UO-31 23.1 µM

COc1cc2ccnc(C#N)c2cc1OCc1ccccc1
inactive: A549 > 100 µM | ACHN > 100 µM | CCRF-CEM > 100 µM | EKVX > 100 µM | HCC 2998 > 100 µM | K562 > 100 µM | OVCAR-4 33.7 µM | RPMI-8226 > 100 µM | TK-10 > 100 µM | U-251 48 µM | UACC-257 > 100 µM | UO-31 > 100 µM
